The nature of data set [1]: Plasma protein binding in human at 1 uM. The conditions noted are these: read-out: PPB (converted). It counts as ADME, cell-free.
The nature of data set [2]: Plasma protein binding in rat at 1 uM. It counts as ADME, cell-free. The conditions noted are these: read-out: PPB (converted).
Data set [3] can be described thus: Aqueous equilibrium solubility of the compound at pH 2. Format: physicochemical.
Data set [4] can be described thus: Aqueous equilibrium solubility of the compound at pH 7. Format: physicochemical.
Data set [5] is described as follows: Apparent permeability from apical to basolateral side in human Caco2 cells. Format: ADME, cell-based. To be noted: Caco-2.
A short description of data set [6]: Apparent permeability from basolateral to apical side in human Caco2 cells. It counts as ADME, cell-based. To be noted: Caco-2.
Data set [7] in a line: Volume of distribution at steady state in rat at 1 mg/kg, iv and 5 mg/kg, po. Format: ADME, organism-based. To be noted: in vivo, read-out: Vdss.
Data set [8] is described as follows: Clearance in rat at 1 mg/kg, iv and 5 mg/kg, po. Format: ADME, organism-based. To be noted: in vivo.
Data set [9] is described as follows: Half life in rat at 1 mg/kg, iv and 5 mg/kg, po. Format: ADME, organism-based. The conditions noted are these: in vivo.
Data set [10] is described as follows: Oral bioavailability in rat at 5 mg/kg. Format: ADME, organism-based. The conditions noted are these: in vivo.
Another data set relates to Brain. In words: Drug uptake in Sprague-Dawley rat brain at 10 mg/kg, po at Tmax. It counts as ADME, organism-based. The conditions noted are these: in vivo.
A short description of data set [11]: Plasma concentration in Sprague-Dawley rat at 10 mg/kg, po at Tmax. It counts as ADME, organism-based.
The species named for data set [12] is Rattus norvegicus. Description: Ex vivo receptor occupancy at P2X7 receptor in Sprague-Dawley rat hippocampus assessed as inhibition of [3H] A-804598 binding at Tmax by autoradiography. Format: functional.
Data set [13] in a line: Ratio of drug level in brain to plasma in Sprague-Dawley rat at 10 mg/kg, po. Format: ADME, organism-based. The conditions noted are these: read-out: BPR.
Data set [14] has as its system Rattus norvegicus. Description: Ex vivo receptor occupancy at P2X7 receptor in po dosed Sprague-Dawley rat hippocampus assessed as inhibition of [3H]JNJ-54232334 binding after 30 mins. Format: functional.
A short description of data set [15]: Brain protein binding in Sprague-Dawley rat at 10 mg/kg, po. Format: ADME, organism-based. To be noted: read-out: PB (converted).
Data set [16] in a line: Plasma protein binding in Sprague-Dawley rat at 10 mg/kg, po. Format: ADME, organism-based. To be noted: read-out: PPB (converted).
The target in data set [17] is Voltage-gated inwardly rectifying potassium channel KCNH2 (Homo sapiens, UniProt Q12809). In words: Displacement of dofetilide from human ERG channel.
Voltage-gated inwardly rectifying potassium channel KCNH2, sequence (Q12809 whole entry): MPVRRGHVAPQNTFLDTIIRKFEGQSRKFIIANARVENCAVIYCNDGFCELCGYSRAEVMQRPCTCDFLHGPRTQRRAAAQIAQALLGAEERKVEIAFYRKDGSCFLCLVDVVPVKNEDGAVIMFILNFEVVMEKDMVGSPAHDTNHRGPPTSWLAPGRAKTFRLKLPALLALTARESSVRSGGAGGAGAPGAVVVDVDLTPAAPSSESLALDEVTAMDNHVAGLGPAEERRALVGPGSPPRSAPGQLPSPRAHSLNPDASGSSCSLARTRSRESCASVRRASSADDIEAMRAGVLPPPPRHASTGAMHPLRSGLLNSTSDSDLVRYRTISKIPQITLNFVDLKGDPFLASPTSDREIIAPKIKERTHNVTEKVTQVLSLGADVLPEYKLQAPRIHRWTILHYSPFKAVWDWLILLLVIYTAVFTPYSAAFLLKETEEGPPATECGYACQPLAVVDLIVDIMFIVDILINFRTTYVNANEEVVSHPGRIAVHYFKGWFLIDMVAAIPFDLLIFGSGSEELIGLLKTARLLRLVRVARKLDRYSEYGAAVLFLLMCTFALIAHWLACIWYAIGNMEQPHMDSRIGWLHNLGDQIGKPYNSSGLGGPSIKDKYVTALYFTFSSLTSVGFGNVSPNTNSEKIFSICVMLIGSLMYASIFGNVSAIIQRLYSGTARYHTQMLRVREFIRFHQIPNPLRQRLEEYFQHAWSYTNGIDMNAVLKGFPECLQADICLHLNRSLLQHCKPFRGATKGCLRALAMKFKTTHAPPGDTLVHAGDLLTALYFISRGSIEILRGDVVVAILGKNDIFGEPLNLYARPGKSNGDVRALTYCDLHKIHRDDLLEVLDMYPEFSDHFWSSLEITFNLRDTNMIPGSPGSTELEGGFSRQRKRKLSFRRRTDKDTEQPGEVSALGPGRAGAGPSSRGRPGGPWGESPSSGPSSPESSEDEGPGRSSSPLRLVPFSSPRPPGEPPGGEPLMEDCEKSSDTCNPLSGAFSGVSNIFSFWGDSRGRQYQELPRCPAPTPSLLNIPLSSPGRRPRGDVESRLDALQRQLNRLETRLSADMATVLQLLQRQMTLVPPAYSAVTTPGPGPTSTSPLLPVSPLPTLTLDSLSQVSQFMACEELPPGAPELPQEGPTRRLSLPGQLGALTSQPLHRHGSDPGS
A further data set deals with Cytochrome P450 2C19 (Homo sapiens, UniProt P33261). Description: Inhibition of CYP2C19 (unknown origin). It counts as ADME.
Cytochrome P450 2C19, sequence (P33261 whole entry): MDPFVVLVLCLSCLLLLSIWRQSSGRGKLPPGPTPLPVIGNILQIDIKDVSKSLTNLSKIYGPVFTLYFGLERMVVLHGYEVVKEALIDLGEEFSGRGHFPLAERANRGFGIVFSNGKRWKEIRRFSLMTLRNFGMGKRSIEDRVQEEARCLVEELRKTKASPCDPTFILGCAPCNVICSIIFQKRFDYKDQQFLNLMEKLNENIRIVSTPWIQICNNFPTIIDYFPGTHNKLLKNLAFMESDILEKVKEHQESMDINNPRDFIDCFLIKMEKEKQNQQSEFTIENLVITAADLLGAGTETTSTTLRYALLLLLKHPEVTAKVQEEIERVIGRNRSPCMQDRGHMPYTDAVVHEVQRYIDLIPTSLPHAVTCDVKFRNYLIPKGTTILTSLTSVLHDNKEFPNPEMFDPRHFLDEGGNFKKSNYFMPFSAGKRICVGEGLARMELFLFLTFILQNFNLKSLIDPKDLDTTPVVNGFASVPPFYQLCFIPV
The nature of data set [18]: Inhibition of CYP450 (unknown origin). It counts as ADME, Homo sapiens.
Data set [19] is filed under the species Rattus norvegicus. Description: animal or person. The conditions noted are these: Sprague-Dawley, P2X7.
Description: Ex vivo receptor occupancy at P2X7 receptor in po dosed Sprague-Dawley rat hippocampus assessed as inhibition of [3H]JNJ-54232334 binding by measuring brain level after 30 mins
Data set [20] is filed under the species Rattus norvegicus. Description: animal or person. To be noted: Sprague-Dawley, P2X7, Plasma.
Description: Ex vivo receptor occupancy at P2X7 receptor in po dosed Sprague-Dawley rat hippocampus assessed as inhibition of [3H]JNJ-54232334 binding by measuring plasma level after 30 mins
Data set [21] is described as follows: Unbound brain to plasma partition ratio in Sprague-Dawley rat at 0.8 mg/kg, po. To be noted: read-out: K(p,uu,brain).
In data set [22] the target is T1, P2X purinoceptor 7 (Rattus norvegicus, UniProt Q64663).
T1 sequence (Q64663 whole entry): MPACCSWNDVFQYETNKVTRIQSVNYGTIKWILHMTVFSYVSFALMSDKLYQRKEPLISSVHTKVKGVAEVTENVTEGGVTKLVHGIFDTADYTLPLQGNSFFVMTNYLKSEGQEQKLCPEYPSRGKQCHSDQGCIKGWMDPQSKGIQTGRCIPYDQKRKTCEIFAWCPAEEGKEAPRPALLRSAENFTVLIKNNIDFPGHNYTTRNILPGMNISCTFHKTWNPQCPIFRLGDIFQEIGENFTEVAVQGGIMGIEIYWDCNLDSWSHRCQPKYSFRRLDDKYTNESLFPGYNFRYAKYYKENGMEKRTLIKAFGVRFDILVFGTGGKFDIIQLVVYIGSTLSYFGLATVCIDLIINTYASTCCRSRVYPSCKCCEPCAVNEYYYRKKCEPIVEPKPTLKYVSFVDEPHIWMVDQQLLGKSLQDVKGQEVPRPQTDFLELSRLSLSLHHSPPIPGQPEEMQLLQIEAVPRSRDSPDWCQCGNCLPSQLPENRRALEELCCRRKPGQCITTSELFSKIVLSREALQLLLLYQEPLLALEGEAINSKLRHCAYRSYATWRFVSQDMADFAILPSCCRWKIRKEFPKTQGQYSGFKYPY
In words: Antagonist activity at rat P2X7 receptor expressed in 1321N1 cells assessed as inhibition of Bz-ATP-induced Ca2+ flux after 30 mins by FLIPR assay. It counts as cell-based.

The target of data set [23] is T2, P2X purinoceptor 7 (Homo sapiens, UniProt Q99572).
T2 sequence (Q99572 whole entry): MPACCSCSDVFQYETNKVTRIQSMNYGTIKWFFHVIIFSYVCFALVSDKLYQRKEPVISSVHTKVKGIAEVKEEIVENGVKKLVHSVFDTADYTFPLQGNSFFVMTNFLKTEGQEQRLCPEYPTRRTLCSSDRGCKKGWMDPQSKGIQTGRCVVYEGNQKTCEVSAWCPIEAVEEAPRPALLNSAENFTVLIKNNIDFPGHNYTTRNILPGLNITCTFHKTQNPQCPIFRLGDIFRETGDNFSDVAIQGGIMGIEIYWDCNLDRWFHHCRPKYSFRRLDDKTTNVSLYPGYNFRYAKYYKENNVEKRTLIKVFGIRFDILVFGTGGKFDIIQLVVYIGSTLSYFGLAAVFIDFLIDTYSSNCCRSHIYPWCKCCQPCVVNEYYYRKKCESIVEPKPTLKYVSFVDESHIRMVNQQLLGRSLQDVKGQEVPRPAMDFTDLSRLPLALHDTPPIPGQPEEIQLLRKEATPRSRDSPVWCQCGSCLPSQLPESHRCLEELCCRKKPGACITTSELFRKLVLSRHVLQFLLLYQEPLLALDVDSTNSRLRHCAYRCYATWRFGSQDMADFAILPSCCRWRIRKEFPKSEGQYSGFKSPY
In words: Antagonist activity at human P2X7 receptor expressed in 1321N1 cells assessed as inhibition of Bz-ATP-induced Ca2+ flux after 30 mins by FLIPR assay. It counts as cell-based.

A short description of data set [24]: Selectivity ratio of IC50 for rat P2X7 receptor to IC50 for human P2X7 receptor.
The nature of data set [25]: Extraction ratio in human liver microsomes at 1 uM. It counts as ADME. The conditions noted are these: read-out: ERH.
A short description of data set [26]: Extraction ratio in rat liver microsomes at 1 uM. Format: ADME. The conditions noted are these: read-out: ERH.
A short description of data set [27]: Efflux ratio of apparent permeability from basolateral to apical side over apical to basolateral side in human Caco2 cells. It counts as ADME, cell-based. The conditions noted are these: Caco-2.

Structures are written as SMILES. Values after ≈ are worked out from the molar mass of the structure shown.

Take `C[C@H]1Cn2c(nnc2-c2cnccn2)C(=O)N1Cc1cccc(C(F)(F)F)c1Cl`: the values for the fraction unbound at 1 µM in data set [1] and in data set [2] were 0.13 and 0.1, respectively. The values for the solubility (thermodynamic) in data set [3] and in data set [4] were 89 µM (≈ 37.6 µg/mL) and 56 µM (≈ 23.7 µg/mL), respectively. Further, the Papp A→B in [5] amounted to 47 ×10⁻⁶ cm/s. Further, in data set [6], the Papp B→A amounted to 50 ×10⁻⁶ cm/s. The Vd in [7] is 1.5 L/kg. In [8], the clearance stood at 19 mL/min/kg. This compound gave a half-life in data set [9] of 1 h. The bioavailability in data set [10] turned out to be 125%. In the data set with Brain, this compound displayed a Drug uptake of 672 ng/mL. In addition, the concentration in data set [11] peaked (Cmax) at 945 ng/mL. In addition, the Occ in the data set listed under Rattus norvegicus [12] is 78%; in the data set on Rattus norvegicus [14], “Dose-dependent effect”. In addition, the Kp in [13] was 0.7. The ED50 in the data set with Rattus norvegicus [14] came out at 0.8 mg/kg. Moreover, the figures for the fraction unbound in data set [15] and in data set [16] were 0.046 and 0.096, respectively. The IC50 in data set [17] was > 10000 nM; on Cytochrome P450 2C19, 7200 nM; in data set [18], > 10000 nM. Besides, the half-maximal effective concentration (EC50) amounted to 0.066 µg/mL (≈ 0.156 µM) in the data set listed under Rattus norvegicus [19] and 0.062 µg/mL (≈ 0.147 µM) in the data set listed under Rattus norvegicus [20]. The Kp uu in [21] is 0.51.

On to `C[C@H]1Cn2c(nnc2-c2cnccn2)C(=O)N1Cc1c(Cl)cccc1Cl`, for which the IC50 on P2X purinoceptor 7 [22] came out at 2380 nM.

Regarding `O=C1c2nnc(-c3cnccn3)n2CCN1Cc1cccc(C(F)(F)F)c1Cl`, the results for the IC50 on P2X purinoceptor 7 [23] and on P2X purinoceptor 7 [22] were 440 nM and 8670 nM, respectively.

As for `C[C@H]1Cn2c(nnc2-c2ncccn2)C(=O)N1Cc1cccc(C(F)(F)F)c1Cl`, the values for the fraction unbound at 1 µM in data set [1] and in [2] were 0.21 and 0.17, respectively. For the same compound, the thermodynamic solubility in data set [3] was determined as 176 µM (≈ 74.4 µg/mL); in [4] it was 201 µM (≈ 85 µg/mL). Moreover, the Papp A→B in data set [5] was found to be 4.4 ×10⁻⁶ cm/s. Moreover, the Papp B→A in [6] was determined as 64 ×10⁻⁶ cm/s. In data set [7], the Vd was determined as 3.3 L/kg. In [8], the clearance amounted to 11 mL/min/kg. The compound also showed a half-life in data set [9] of 4.8 h. The bioavailability in [10] is 80%. The compound further had a Drug uptake in the data set with Brain of 116 ng/mL. Besides, the Cmax in data set [11] amounted to 2790 ng/mL. Moreover, in the data set filed under Rattus norvegicus [12], the Occ is on record as 41%.

In the case of `C[C@H]1Cn2c(nnc2-c2cc[nH]n2)C(=O)N1Cc1cccc(C(F)(F)F)c1Cl`, the fraction unbound at 1 µM in [1] is 0.08; in data set [2] it was 0.1. In addition, the solubility (thermodynamic) was 41 µM (≈ 16.8 µg/mL) in [3] and 95 µM (≈ 39 µg/mL) in data set [4]. Further, the Papp A→B in [5] turned out to be 5.4 ×10⁻⁶ cm/s. In addition, the Papp B→A in data set [6] stood at 65 ×10⁻⁶ cm/s. In addition, the Vd in [7] turned out to be 4.2 L/kg. The compound also displayed a clearance in [8] of 13 mL/min/kg. The half-life in data set [9] is 3.9 h. For the same compound, the bioavailability in data set [10] is 81%. This compound showed a Drug uptake in the data set with Brain of 41 ng/mL. Moreover, the Cmax in data set [11] amounted to 1310 ng/mL. Also, the Occ in the data set listed under Rattus norvegicus [12] turned out to be 3%.

For the compound `C[C@H]1Cn2c(nnc2-c2ccccn2)C(=O)N1Cc1cccc(C(F)(F)F)c1Cl`, the Ratio IC50 in [24] was found to be 100. Further, the IC50 was 0.5 nM on P2X purinoceptor 7 [23] and 350 nM on P2X purinoceptor 7 [22].

Turning to `C[C@H]1Cn2c(nnc2-c2ccn(C)n2)C(=O)N1Cc1cccc(C(F)(F)F)c1Cl`, the Ratio IC50 in data set [24] was 100. The IC50 amounted to 4.2 nM on P2X purinoceptor 7 [23] and 960 nM on P2X purinoceptor 7 [22].

As to `C[C@H]1Cn2c(nnc2-c2cnccn2)C(=O)N1Cc1ccccc1Cl`, on P2X purinoceptor 7 [22], the IC50 was > 10000 nM.

As for `C[C@H]1Cn2c(nnc2-c2cnccn2)C(=O)N1Cc1cccc(C(F)(F)F)c1`, the IC50 at P2X purinoceptor 7 [23] was 3.6 nM; at P2X purinoceptor 7 [22] it was 4140 nM.

Take `C[C@H]1Cn2c(nnc2-c2ccc(F)cn2)C(=O)N1Cc1cccc(C(F)(F)F)c1Cl`: the IC50 on P2X purinoceptor 7 [23] came out at 0.7 nM.

For the compound `C[C@H]1Cn2c(nnc2-c2cccnc2)C(=O)N1Cc1cccc(C(F)(F)F)c1Cl`, the hepatic extraction ratio at 1 µM in [25] and in data set [26] was 0.3 in each case. Besides, in [24], the Ratio IC50 is 100. The figures for the IC50 at P2X purinoceptor 7 [23] and on P2X purinoceptor 7 [22] were 1.9 nM and 88 nM, respectively. Further, the fraction unbound at 1 µM in [1] is 0.22; in [2], 0.17. The solubility (thermodynamic) in [3] is > 400 µM; in data set [4], 375 µM (≈ 158 µg/mL). In addition, the Papp A→B in [5] stood at 6.2 ×10⁻⁶ cm/s. Further, the basolateral-to-apical permeability (Papp B→A) in data set [6] was 73 ×10⁻⁶ cm/s. The Vd in data set [7] worked out at 5 L/kg. The compound also gave a clearance in data set [8] of 21 mL/min/kg. Also, in data set [9], the half-life was 2.8 h. Further, the bioavailability in data set [10] was found to be 82%. Further, the Drug uptake with Brain amounted to 43 ng/mL. The Cmax in data set [11] came out at 1060 ng/mL. The Occ in the data set listed under Rattus norvegicus [12] turned out to be 0%. In addition, the efflux ratio in data set [27] was > 10.

With `O=C1c2nnn(-c3cnccn3)c2CCN1Cc1cccc(C(F)(F)F)c1Cl`, the IC50 on P2X purinoceptor 7 [23] and at P2X purinoceptor 7 [22] was > 10000 nM each time.

The record behind these values is ChEMBL document CHEMBL3745703, “Preclinical characterization of substituted 6,7-dihydro-[1,2,4]triazolo[4,3-a]pyrazin-8(5H)-one P2X7 receptor antagonists” (Bioorg Med Chem Lett, 2016).
